Key:
[1] = test system: murine airpouch granuloma; test: Murine Air Pouch Granuloma Model of angiogenesis in vivo; set-up: species or system mice; conditions: positive control
Text: Measurement of Angiogenesis In Vivo—Murine Air Pouch Granuloma Model:
The murine airpouch granuloma model of chronic inflammation (Kimura et al., 1985, J. Pharmacobio-Dyn., 8:393-400; Colville-Nash et al., 1995, J. Pharm. and Exp. Ther., 274:1463-1472) whose disclosure is incorporated herein by reference in its entirety, is characterized by inflammatory cell influx, fibrous tissue proliferation and intense angiogenesis. […] In addition, angiogenesis can be accurately quantitated by a vascular casting method.
Day 1, mice are anesthetized using Aerrane (isoflurane) gas (5%) or other approved methods, after which 3 mls of air is injected into the dorsal subcutaneous tissue using a 27 g needle. Mice are allowed to recover. […]
When the granuloma is removed it is weighed and then dried for 3 days at 45° C. and reweighed. […] The carmine content is then determined against a carmine red standard curve (0.5 to 2 mg/ml) generated in extracted tissue from non carmine treated animals and read at 490 nm. Sample and standard values are determined typically using DeltaSoft Elisa analysis software (Biometallics Inc., Princeton, N.J.). […]
The effect of compounds on vascular density was typically measured for 6 days after induction of the granuloma. This time point has been determined to be at or near the peak of angiogenesis. […] Medroxyprogesterone had no effect on granuloma size as measured by dry weight.

| Molecule | maximum reduction (vascular density) ([1]; measured 6 days after induction of the granuloma) [%] | effect on granuloma size as measured by dry weight ([1]; murine air pouch granuloma) | melting point [°C] |
| --- | --- | --- | --- |
| medroxyprogesterone | 50 | no effect | – |
| CCOc1ccc2cc(-c3nc(C(C)(C)C)[nH]c3-c3ccncc3)ccc2c1 | – | – | 258 to 259 |
